Like-named read-outs stand apart in the source and are kept apart here.
Columns and labels:
wheat seeds = experiment: Pre-sowing seed treatment, sowing qualities of wheat seeds; format: in vivo; conditions: for germination energy: control 82; for laboratory germination: control 85.7
Procedure: (§1) When evaluating the effectiveness of treatment of wheat, alfalfa, barley, rice, and sorghum seeds as fungicidal and bactericidal agents with preparation compounds at concentrations of 10, 20, and 40 mmol, their effect on the suppression of seed infection was evaluated.
(§2) […] The sowing qualities were evaluated (germination energy for 3–4 days, laboratory germination for 7–8 days) according to GOST 12038-84 [60]. Sowing qualities of seeds were determined in wet chambers. According to the sample, 50 seeds were taken in 4-fold repetition.

alfalfa seeds = experiment: Pre-sowing seed treatment, sowing qualities of alfalfa seeds; format: in vivo; conditions: for germination energy / laboratory germination: control 76
Procedure: as §1, §2

[1] = system: fungal microflora (mushrooms) on alfalfa seeds; experiment: Growth of fungal microflora on treated alfalfa seeds; format: cell-based; conditions: 10 mmol
Procedure: (§3) During phytopathological analyses of agricultural crops, the species composition of fungal and bacterial microflora was established. Laboratory studies were carried out on two nutrient media potato-agar (ingredients: potatoes—200 g; agar-agar—20 g; distilled water—1000 mL.) and potato-dextrose agar (ingredients: potatoes—200 g;dextrose—20 g; agar-agar—20 g; distilled water—1000 mL), according to the guidelines.
When evaluating the effectiveness of treatment of wheat, alfalfa, barley, rice, and sorghum seeds as […], their effect on the suppression of seed infection was evaluated.

sorghum seeds = experiment: Pre-sowing seed treatment, sowing qualities of sorghum seeds; format: in vivo; conditions: for germination energy: control 52.3; for laboratory germination: control 57
Procedure: as §1, §2

SH-SY5Y (neuroblastoma) = experiment: Cell viability, MTT test; format: cell-based, Human; conditions: for IC50: Homo sapiens, SH-SY5Y, read-out: IC50 (concentration causing 50% inhibition of cell population growth)
Procedure: (§4) In this work, the cytotoxic potential of the water-soluble salts based on benzofuroxan was determined by the effect of compounds on the survival of the cell tumor origin cultures (SH-SY5Y, Hep2, A549, HeLa) using the MTT test. To understand how the synthesized compounds can influence the healthy microenvironment in the body, the effect of substances on the viability of a normal Hek 293 cell culture was additionally evaluated.
(§5) Human cell cultures of tumor origin—SH-SY5Y (neuroblastoma), HeLa (cervical tumor), Hep-2 (larynx carcinoma), A549 (adenocarcinomic human alveolar basal epithelial cells)—and normal cell line Hek 293 (human embryonic kidneys), provided by the Laboratory of Tumor Cell Genetics of the Scientific Research Institute of Carcinogenesis, N.N. Blokhin National Medical Research Center of Oncology, as well as the Institute of Cytology of the Russian Academy of Sciences, were grown in a nutrient medium DMEM (PanEco, Moscow, Russia) and MEM (PanEco, Moscow, Russia), containing fetal bovine serum (10% by volume) (ThermoFisher Scientific, Paisley, UK), Glutamax (2 mM) (Gibco, Scotland, UK), and penicillin-streptomycin (1% by volume) (PanEco, Moscow, Russia). The cultivation was carried out at 37 °C in a humidified CO2 atmosphere (5%).
(§6) Cell viability was determined by MTT test. Cells were seeded in a 96-well plate in the amount of 1 × 10^4 cells/200µLof complete nutrient medium and cultured at 37 °C in CO2 (5%). After 24 h of incubation, various concentrations of test compounds in the range from 0.1 to 100 μM, were added to the cell cultures, and then the cells were cultured under the same conditions for 24 and 72 h. For each concentration, the experiment was carried out in triplicate.
(§7) All compounds were dissolved in DMSO, then diluted with the medium to the required concentration. […] The DMSO was also added to the control wells in a volume of 1%. After the incubation time, MTT (3-(4,5-dimethylthiazol-2-yl)-2,5-diphenyltetrazolium bromide, 5 mg/mL) was added to each well and plates were additionally incubated for 2 h (until the characteristic color appeared).
(§8) Using a plate analyzer (Cytation3, BioTech Instruments Inc., Winooski, VT, USA), the optical density was determined at 530 nm. The concentration value causing 50% inhibition of cell population growth (IC50) was determined from dose-dependent curves.

[2] = system: A549 (adenocarcinomic human alveolar basal epithelial cells); experiment: Cell viability, MTT test; format: cell-based; conditions: read-out: IC50 (concentration causing 50% inhibition of cell population growth)
Procedure: as §4, §5, §6, §7, §8

HeLa (cervical tumor) = experiment: Cell viability, MTT test; format: cell-based; conditions: Homo sapiens, read-out: IC50 (concentration causing 50% inhibition of cell population growth)
Procedure: as §4, §5, §6, §7, §8

Hep-2 (larynx carcinoma) = experiment: Cell viability, MTT test; format: cell-based; conditions: Homo sapiens, read-out: IC50 (concentration causing 50% inhibition of cell population growth)
Procedure: as §4, §5, §6, §7, §8

[3] = system: glycolysis in SH-SY5Y cells; experiment: Glycolysis stress test (ECAR, Seahorse XF96e); format: cell-based, Human; conditions: 100 µM
Procedure: Using the cell metabolism analyzer Agilent Seahorse XF96e Analyzer (Seahorse Bioscience, North Billerica, MA, USA), the rate of extracellular acidification of the medium (ECAR) in cells of tumor origin SH-SY5Y was evaluated as a glycolysis measure.
The ability of compounds to suppress anaerobic glycolysis was studied using the Agilent Seahorse XF96e Analyzer (Seahorse Bioscience, North Billerica, MA, USA) by the level of hydrogen proton production in the studied samples on cell lines of neuroblastoma SH-SY5Y using a glycolysis stress test [62]. The rate of extracellular acidification of the medium was measured in real time, which made it possible to assess the intensity of glycolysis in cells by fixing the three main parameters of the glycolytic function: basal glycolysis, glycolytic capacity, and glycolytic reserve.
SH-SY5Y cells in the exponential growth phase were seeded in a 96-well Seahorse cell culture microplate. The planting density of the cell culture was 2 × 10^4/well. […]
The test compounds were added from port A at a concentration of 100 μM. To determine the effect of test compounds on basal glycolysis of neoplastic cells, 10 mM glucose was added from port B. The maximum glycolytic capacity was assessed by injecting oligomycin at a concentration of 1 μM from port C. […]

[4] = system: bacterial microflora on barley seeds; experiment: Growth of bacterial microflora on treated barley seeds; format: cell-based; conditions: all studied doses
Procedure: as §3, §1

[5] = system: bacterial microflora on rice seeds; experiment: Growth of bacterial microflora on treated rice seeds; format: cell-based
Procedure: as §3, §1

Row | Compound | germination energy (wheat seeds; 10 mmol) [%] | laboratory germination (wheat seeds; 10 mmol) [%] | germination energy (wheat seeds; 20 mmol) [%] | laboratory germination (wheat seeds; 20 mmol) [%] | germination energy (wheat seeds; 40 mmol) [%] | laboratory germination (wheat seeds; 40 mmol) [%] | germination energy (alfalfa seeds; 10 mmol) [%] | laboratory germination (alfalfa seeds; 10 mmol) [%] | germination energy (alfalfa seeds; 20 mmol) [%] | laboratory germination (alfalfa seeds; 20 mmol) [%] | germination energy (alfalfa seeds; 40 mmol) [%] | laboratory germination (alfalfa seeds; 40 mmol) [%] | germination energy (sorghum seeds; 10 mmol) [%] | laboratory germination (sorghum seeds; 10 mmol) [%] | germination energy (sorghum seeds; 20 mmol) [%] | laboratory germination (sorghum seeds; 20 mmol) [%] | germination energy (sorghum seeds; 40 mmol) [%] | laboratory germination (sorghum seeds; 40 mmol) [%] | IC50 (SH-SY5Y (neuroblastoma); 24 h) [µM] | IC50 (SH-SY5Y (neuroblastoma); 72 h) [µM] | other results
1 | CN(C)CCCNc1c([N+](=O)[O-])c(Cl)cc2c1no[n+]2[O-].Cl [4g, 6-chloro-4-(3-(dimethylammonio)propylamino)-5-nitrobenzo[c][1,2,5]oxadiazole 1-oxide chloride] | 42.8 | 47.6 | 80.9 | 90.4 | 80.9 | 80.9 | 56.6 | 60 | 43.3 | 63.3 | 80 | 80 | 36.6 | 50 | 61.9 | 71.4 | 57.2 | 80.9 | 20.9 ± 0.82 | 17.07 ± 0.03 | sowing qualities of seeds compared with control (alfalfa seeds; 40 mmol): higher than controls; effect on fungal microflora [1]: positive effect on the suppression of fungal microflora; sowing qualities of seeds compared with control (sorghum seeds; 20 mmol): higher than in the control; sowing qualities of seeds compared with control (sorghum seeds; 40 mmol): higher than in the control; IC50 ([2]; A549, 24 h): 82 ± 1.54 µM; IC50 ([2]; A549, 72 h): 64.2 ± 2.12 µM; IC50 (HeLa (cervical tumor); 24 h): 97.8 ± 3.31 µM; IC50 (HeLa (cervical tumor); 72 h): 83.1 ± 4.29 µM; IC50 (Hep-2 (larynx carcinoma); HEp-2, 24 h): 70.3 ± 1.28 µM; IC50 (Hep-2 (larynx carcinoma); HEp-2, 72 h): 58 ± 2.9 µM; glycolytic parameters (basal glycolysis, glycolytic capacity, glycolytic reserve) ([3]; ECAR): reaching a minimum
2 | O=[N+]([O-])c1c(Cl)cc2c(no[n+]2[O-])c1NCCCN1CCOCC1 [4e, 6-chloro-4-(3-(morpholino-4-ium)propylamino)-5-nitrobenzo[c][1,2,5]oxadiazole 1-oxide chloride] | 33.3 | 42.8 | 97 | 97.5 | 98 | 99 | 46.6 | 46.6 | 78.5 | 79.5 | 73 | 74 | 33.3 | 63.3 | 50.5 | 56 | 50.5 | 52.5 | 24.1 ± 1.22 | 20.2 ± 0.72 | sowing qualities of seeds compared with control (wheat seeds; 20 mmol): higher than in the case of controls; sowing qualities of seeds compared with control (wheat seeds; 40 mmol): higher than in the case of controls; effect on bacterial microflora [4]: slight suppression of the bacterial microflora; effect on bacterial microflora ([5]; 10 mmol): positive effect on the suppression of bacterial microflora; effect on bacterial microflora ([5]; 20 mmol): positive effect on the suppression of bacterial microflora; selectivity index (SH-SY5Y (neuroblastoma); IC50 on neuroblastoma SH-SY5Y with respect to Hek 293, 24 h): more than 4; IC50 ([2]; A549, 24 h): 90.2 ± 3.43 µM; IC50 ([2]; A549, 72 h): 77.1 ± 1.36 µM; IC50 (HeLa (cervical tumor); 24 h): > 100 µM; IC50 (HeLa (cervical tumor); 72 h): 93.8 ± 2.53 µM; IC50 (Hep-2 (larynx carcinoma); HEp-2, 24 h): 83 ± 1.37 µM; IC50 (Hep-2 (larynx carcinoma); HEp-2, 72 h): 70.21 ± 0.54 µM; suppression of glycolytic function parameters ([3]; compared with control samples): 60%

Reference: article PMC9739695, “Water-Soluble Salts Based on Benzofuroxan Derivatives—Synthesis and Biological Activity” (International Journal of Molecular Sciences, 2022)
